Measured values: article PMC11270681, “Synthesis and Systematic Investigation of Lepidiline A and Its Gold(I), Silver(I), and Copper(I) Complexes Using In Vitro Cancer Models and Multipotent Stem Cells” (ACS Omega, 2024)
Where “and” joins values, the source holds several entries; their conditions need not be identical. Equal entries are not always repeated. Each block holds one molecule with its values, some of them ahead of it.

Assays:
[1] = test system: HL-60 leukemia line; design: method as in PMID 34808062; conditions: cited from earlier work
[2] = test system: panel of cancer cell lines of various origins; design: method as in PMID 12932133; conditions: up to 10 μg/mL (approximately 60 μM for lepidiline A); cited from earlier work
[3] = test system: 3 ovarium cancer lines (IGROV-1, OVC-3, and OVC-8); assay: Cytotoxicity, range over 3 ovarium cancer lines; type: cell-based; conditions: IGROV-1, OVC-3, OVC-8
Experimental: (§1) OVCAR-3 (OVC-3) and OVCAR-8 (OVC-8) ovarian serous adenocarcinomas, IGROV-1 ovarian endometrioid adenocarcinoma, OVCAR-5 (OVC-5) upper gastrointestinal carcinoma, MDA-MB-231 breast adenocarcinoma, and MCF-7 and T-47D invasive breast carcinomas were purchased from the Developmental Therapeutic Program of the National Cancer Institute (NIH, USA) and were cultured in an RPMI medium (Thermo Fisher). Mes-Sa and Mes-Sa/Dx5 uterine sarcoma cell lines were purchased from American Type Culture Collection (ATCC) and were kept in DMEM (Thermo Fisher). Mes-Sa B1 was transfected with the human MDR1 gene, and Mes-Sa mCherry, Mes-Sa B1 mOrange, and Mes-Sa/Dx5 eGFP were engineered to stably express the respective fluorescent proteins previously.[51] Culture media for cancer cells were supplemented with 10% fetal bovine serum, 2 mM L-glutamine, and 100 units/mL penicillin and 100 μg/mL streptomycin (Thermo Fisher). The adipose tissue and bone marrow-derived mesenchymal stem cells (AD-MSC and BM-MSC) were described previously[37] and were kept in DMEM-F12 (Gibco) supplemented with 10% fetal bovine serum, L-glutamine (Thermo Fisher), 0.1% gentamicin (Gibco, 50 mg/mL), and 16 ng/mL fibroblast growth factor 2 (Peprotech). Cells were kept at 37 °C under 5% CO2 and were negative for mycoplasma infection.
(§2) Cytotoxicities of the nonfluorescent cancer cells were assessed with a PrestoBlue cell viability reagent (Thermo Fisher). Briefly, 2500 cells/well were seeded on 384-well plates; then, the next-day drugs were added. After 72 h of incubation, PrestoBlue was added in a 10% final concentration, and after an hour of additional incubation, plates were measured with a PerkinElmer EnSpire plate reader at 555 nm/585 nm excitation/emission wavelengths. Stem cells were seeded on 96-well plates at a density of 5000 cells/well, and the following day, drugs were added for 96 h of incubation; then, viability was assessed with 10% PrestoBlue diluted in PBS. Fluorescent cancer cells were admixed before seeding on 384-well plates at an 800 cells/well density each, thus altogether 2400 cells/well. Drugs were added the following day, and the intensity of the fluorescent proteins was measured after 144 h of incubation at the respective fluorescent channels (excitation/emission, eGFP: 485 nm/510 nm; mCherry: 585 nm/610 nm; mOrange: 545 nm/567 nm). pIC50 values were calculated by a custom program written by Judit Sessler in C#. IC50 values and standard deviation were calculated from average pIC50 values from at least 3 independent measurements.

[4] = test system: Mes-Sa B1; assay: Cytotoxicity, MDR1-transfected uterine sarcoma line; type: cell-based; conditions: Mes-Sa B1 (MDR1 transfected, ABCB1 expressing), fluorescent protein intensity after 144 h
Experimental: as §1, §2

[5] = test system: OVC-8; assay: Cytotoxicity (PrestoBlue), ovarian cancer line; type: cell-based; conditions: OVC-8, 72 h incubation
Experimental: as §1, §2

[6] = test system: OVC-3; assay: Cytotoxicity (PrestoBlue), ovarian cancer line; type: cell-based; conditions: OVC-3, 72 h incubation
Experimental: as §1, §2

[7] = test system: IGROV-1; assay: Cytotoxicity (PrestoBlue), ovarian cancer line; type: cell-based; conditions: IGROV-1, 72 h incubation
Experimental: as §1, §2

[8] = test system: Mes-Sa/Dx5; assay: Cytotoxicity, doxorubicin-selected MDR uterine sarcoma line; type: cell-based; conditions: Mes-Sa/Dx5 (doxorubicin selected, ABCB1 expressing), fluorescent protein intensity after 144 h
Experimental: as §1, §2

[9] = test system: AD-MSC; assay: Cytotoxicity (PrestoBlue), adipose-derived mesenchymal stem cells; type: cell-based; conditions: 96 h incubation
Experimental: as §1, §2

[10] = test system: BM-MSC; assay: Cytotoxicity (PrestoBlue), bone marrow-derived mesenchymal stem cells; type: cell-based; conditions: 96 h incubation
Experimental: as §1, §2

[11] = test system: T-47D; assay: Cytotoxicity (PrestoBlue), breast cancer line; type: cell-based; conditions: 72 h incubation
Experimental: as §1, §2

[12] = test system: MCF-7; assay: Cytotoxicity (PrestoBlue), breast cancer line; type: cell-based
Experimental: as §1, §2

[13] = test system: MDA-MB-231; assay: Cytotoxicity (PrestoBlue), breast cancer line; type: cell-based; conditions: MDA-MB-231, 72 h incubation
Experimental: as §1, §2

[14] = test system: Mes-Sa; assay: Cytotoxicity, uterine sarcoma parental line; type: cell-based; conditions: fluorescent protein intensity after 144 h
Experimental: as §1, §2

[15] = test system: Bone marrow MSCs (BM-MSC); assay: Cytotoxicity, range over bone marrow MSCs; type: cell-based; conditions: BM-MSC and immortalized BM-MSC
Experimental: as §1, §2

[16] = test system: OVC-5; assay: Cytotoxicity (PrestoBlue), upper gastrointestinal cancer line; type: cell-based; conditions: for IC50: OVC-5, 72 h incubation, PrestoBlue
Experimental: as §1, §2

[17] = test system: T-47D; assay: H2DCFDA intracellular ROS production assay; type: cell-based; conditions: 50 μM, 4 h incubation
Experimental: (§3) To assess intracellular ROS production, we used a H2DCFDA cellular ROS assay kit (ab113851, Abcam) according to the manufacturer’s instructions. Briefly, 20,000 cells were seeded on 96-well plates. On the following day, cells were washed, and H2DCFDA solution, prepared by avoiding direct light, was added for 45 min. Next, cells were washed, and 50 μM samples of test compounds were aspirated on the cells in a complete and phenol red-free medium (FluoroBrite, Thermo Fisher). At each hour, fluorescence of 2′,7′-dichlorofluorescein (DCF) was measured at 484 nm/535 nm excitation/emission wavelengths. Values were normalized to 0 h measurements. Values indicate at least 3 independent measurements.

[18] = test system: MCF-7; assay: H2DCFDA intracellular ROS production assay; type: cell-based; conditions: MCF-7, 50 μM, 4 h incubation
Experimental: as §3

[19] = test system: Mes-Sa; assay: H2DCFDA intracellular ROS production assay; type: cell-based; conditions: 50 μM, 4 h incubation
Experimental: as §3

[20] = test system: im. BM-MSC; assay: Cytotoxicity (PrestoBlue), immortalized bone marrow MSC; type: cell-based; conditions: 96 h incubation
Experimental: as §1, §2

[21] = test system: 3 breast cancer cell lines (MDA-MB-231, MCF-7 and T-47D); assay: Cytotoxicity, range over 3 breast cancer cell lines; type: cell-based; conditions: MDA-MB-231, MCF-7, T-47D
Experimental: as §1, §2

[22] = Stability in serum-free culture medium by HPLC-UV; type: physicochemical; conditions: for AUC (HPLC-UV), single measurements 1-5 / AUC (HPLC-UV), average: serum-free culture medium
Experimental: Stability of the metal complexes in solution was measured in serum-free culture medium. The compounds were dissolved in DMSO right before the experiment. Solutions of Cu-LA and Ag-LA contained 1% final volume of DMSO, while Au-LA contained 30% DMSO. Samples were taken right after dilution, and after 1 h, 2 h, 4 h, 8 h, 16 h, 32 and 48 h, and measured by HPLC-UV.

[23] = test system: cancer lines; assay: Cytotoxicity, range over cancer lines; type: cell-based; conditions: all cancer lines tested; read-out: IC50 range over cancer lines
Experimental: as §1
(§4) Cytotoxicities of the nonfluorescent cancer cells were assessed with a PrestoBlue cell viability reagent (Thermo Fisher). Briefly, 2500 cells/well were seeded on 384-well plates; then, the next-day drugs were added. After 72 h of incubation, PrestoBlue was added in a 10% final concentration, and after an hour of additional incubation, plates were measured with a PerkinElmer EnSpire plate reader at 555 nm/585 nm excitation/emission wavelengths. Stem cells were seeded on 96-well plates at a density of 5000 cells/well, and the following day, drugs were added for 96 h of incubation; then, viability was assessed with 10% PrestoBlue diluted in PBS. […] IC50 values and standard deviation were calculated from average pIC50 values from at least 3 independent measurements.

[24] = test system: MSCs; assay: Cytotoxicity, range over MSCs; type: cell-based; conditions: AD-MSC, BM-MSC, immortalized BM-MSC
Experimental: as §1, §4

[25] = test system: MCF-7 breast cancer line; design: method as in PMID 34808062; conditions: cited from earlier work

Structure (SMILES): Cc1c(C)[n+](Cc2ccccc2)c(C)n1Cc1ccccc1 [lepidiline B, reference compound]
IC50 [1]: 3.8 µM
Toxicity against a panel of cancer cell lines [2]: low or no toxicity

Structure (SMILES): Cc1c(C)[n+](Cc2ccccc2)cn1Cc1ccccc1.[Cl-] [LA, 1,3-Dibenzyl-4,5-dimethyl-imidazol-1-ium-chloride]
IC50 ([3]; Homo sapiens): 48.1 to 72.9 µM
IC50 ([4]; Homo sapiens): > 200 µM
IC50 [5]: 57.2 µM
IC50 [6]: 48.1 µM
IC50 ([7]; Homo sapiens): 59.9 µM
IC50 ([8]; Homo sapiens, MES-SA/Dx5, 144 h): > 200 µM
IC50 ([9]; listed as Lepidiline A): 184 µM
IC50 ([9]; Mesenchymal stem cells, 96 h): 184 µM
IC50 ([10]; BMMSC): 69.1 µM
IC50 ([11]; Homo sapiens, T47D): 16.1 µM
IC50 ([12]; Homo sapiens, MCF7, MCF-7, 72 h incubation): 71.7 µM
IC50 ([13]; Homo sapiens): 91.8 µM
IC50 ([14]; Homo sapiens): 27.8 µM
IC50 ([15]; BMMSC): 48 to 98 µM
IC50 [16]: > 200 µM
Lower susceptibility of OVC-5 compared to the ovarian cancer lines ([16]; OVC-5 vs ovarian cancer lines): 4 fold
IC50 [1]: ~30 µM
Toxicity against a panel of cancer cell lines [2]: low or no toxicity
Intracellular ROS production compared to the medium [17]: did not provoke extra ROS production
Intracellular ROS production compared to the medium [18]: did not provoke extra ROS production
Intracellular ROS production compared to the medium [19]: did not provoke extra ROS production
IC50 ([20]; BMMSC): 47.6 µM

AUC (HPLC-UV), single measurements 1-5 ([22]; 0 h): 700 and 697 and 698
AUC (HPLC-UV), average ([22]; 0 h, Cu-LA, Ag-LA 1% DMSO, Au-LA 30% DMSO): 698
AUC (HPLC-UV), average ([22]; 1 h): 677
AUC (HPLC-UV), single measurements 1-5 ([22]; 1 h): 690 and 685 and 674 and 672 and 665
AUC (HPLC-UV), average ([22]; 2 h): 643
AUC (HPLC-UV), single measurements 1-5 ([22]; 2 h): 645 and 644 and 640 and 643
AUC (HPLC-UV), average ([22]; 4 h): 606
AUC (HPLC-UV), single measurements 1-5 ([22]; 4 h): 614 and 605 and 604 and 603
AUC (HPLC-UV), average ([22]; 8 h): 456
AUC (HPLC-UV), single measurements 1-5 ([22]; 8 h): 463 and 457 and 456 and 454 and 451
AUC (HPLC-UV), average ([22]; 16 h): 351
AUC (HPLC-UV), single measurements 1-5 ([22]; 16 h): 354 and 351 and 353 and 350 and 345
AUC (HPLC-UV), average ([22]; 32 h): 177
AUC (HPLC-UV), single measurements 1-5 ([22]; 32 h): 180 and 173 and 174 and 172 and 187
AUC (HPLC-UV), average ([22]; 48 h): 141
AUC (HPLC-UV), single measurements 1-5 ([22]; 48 h): 142 and 143 and 140 and 135
Stability in serum-free culture medium ([22]; HPLC-UV, observed 48 h): decreased after 4 h
Structure (SMILES): Cc1c(C)n(Cc2ccccc2)[c](=[Au][Cl])n1Cc1ccccc1 [Au-LA, Chloro-(1,3-dibenzyl-4,5-dimethyl-imidazol-2-ylidene)gold]
IC50 [3]: 10.5 to 17.4 µM
IC50 [4]: 12.8 µM
IC50 [21]: 5.8 to 12 µM
IC50 [5]: 12.7 µM
IC50 [6]: 16.6 µM
IC50 [7]: 10.5 µM
IC50 [8]: 13.4 µM
IC50 [9]: 5.69 µM
IC50 [10]: 7.54 µM
IC50 [23]: 7.7 to 24.8 µM
IC50 [11]: 7.71 µM
IC50 ([12]; MCF-7, 72 h incubation): 9.49 µM
IC50 [13]: 9.58 µM
IC50 [14]: 9.09 µM
IC50 [15]: 5.7 to 15.7 µM
IC50 [16]: 24.8 µM
IC50 [24]: 5.7 to 7.5 µM
More ROS compared to the medium [19]: ~50%
IC50 [20]: 5.7 µM

Structure (SMILES): COc1cccc(C[n+]2cn(Cc3ccccc3)c(C)c2C)c1 [lepidiline C]
IC50 [25]: 75 µM
IC50 [1]: ~30 µM
